Earlier results as cited in US10633688B2, “Systems and methods for predicting response to minoxidil for the treatment of androgenetic alopecia” (Follea International, priority 2010, dated 2020).

Columns and labels:
[1] = system: female androgenetic alopecia; conditions: females
SULT1A1 = biological target: T1, SULT1A1 (Homo sapiens, UniProt P50225)
T1 construct: Plucked hairs were collected from the border between bald and non-bald scalp and inspected visually for an intact bulb; from tissue; host or cells: plucked anagen scalp hair (hair bulb / follicle) of AGA patients
T1 sequence (P50225 whole entry): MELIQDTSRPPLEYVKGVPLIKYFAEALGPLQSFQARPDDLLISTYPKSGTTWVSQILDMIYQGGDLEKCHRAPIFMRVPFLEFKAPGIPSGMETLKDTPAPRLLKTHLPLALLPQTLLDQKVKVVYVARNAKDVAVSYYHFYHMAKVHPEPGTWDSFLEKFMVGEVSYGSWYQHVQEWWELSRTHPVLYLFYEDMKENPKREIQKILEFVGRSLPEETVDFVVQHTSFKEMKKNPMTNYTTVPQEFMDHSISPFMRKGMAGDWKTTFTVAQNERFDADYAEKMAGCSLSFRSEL

| SMILES | effectiveness in the treatment of female androgenetic alopecia [1] | effect on SULT1A1 sulfation of minoxidil (SULT1A1) |
| --- | --- | --- |
| CC(C)(C)NC(=O)[C@H]1CC[C@H]2[C@@H]3CC[C@H]4NC(=O)C=C[C@]4(C)[C@H]3CC[C@]12C [finasteride] | failed to show the effectiveness | – |
| O=C(O)c1ccccc1O [salicylic acid] | – | lower SULT1A1 sulfation of minoxidil by competitive inhibition |
